This is an account of results in the OPERA property sets (Mansouri et al. 2018).

Regarding `NNC(=O)Nc1ccc(C(=O)O)cc1`, the log partition coefficient (logP) was -0.21.

Turning to `NNC(=O)Nc1cccc(C(=O)O)c1`, the logP is -0.16.

Consider `NNC(=O)Nc1ccc([N+](=O)[O-])cc1`, for which the log partition coefficient (logP) is -0.18.

As for `NNC(=O)Nc1ccccc1C(=O)O`, the logP is -0.49.

`NNC(=O)Nc1ccccc1O` registered a logP of 0.33.

As to `NNC(=O)Nc1ccccc1[N+](=O)[O-]`, the logP was -0.47.

Take `COc1ccc(NC(=O)NN)cc1`: the logP amounted to 0.17.

Take `Cc1ccc(NC(=O)NN)cc1`: the logP was 0.69.

`NNC(=O)Nc1ccc(Cl)cc1` displayed a logP of 0.87.

In turn, `NNC(=O)Nc1ccccc1` came in with a logP of 0.16.

The compound `COc1ccccc1NC(=O)NN` showed a logP of -0.15.

`Cc1cccc(NC(=O)NN)c1`: the logP was determined as 0.68.

The term logP denotes a log measure of how a compound divides between an organic and an aqueous phase. Lower therefore signals a more hydrophilic compound.
